Laboratory results reported in publication PMC11945486, “TAS1R2/TAS1R3 Single-Nucleotide Polymorphisms Affect Sweet Taste Receptor Activation by Sweeteners: The SWEET Project” (Nutrients, 2025).
Like-named read-outs stand apart in the source and are kept apart here. No end group written: not given here.

T1: human TAS1R2-WT/TAS1R3-F514L (Homo sapiens, UniProt Q7RTX0+Q8TE23, F514L)
T1 construct: expressed in transfected cells; host or cells: HEK293T stably expressing Gα16gust44
T1 sequence (Q8TE23 20-839): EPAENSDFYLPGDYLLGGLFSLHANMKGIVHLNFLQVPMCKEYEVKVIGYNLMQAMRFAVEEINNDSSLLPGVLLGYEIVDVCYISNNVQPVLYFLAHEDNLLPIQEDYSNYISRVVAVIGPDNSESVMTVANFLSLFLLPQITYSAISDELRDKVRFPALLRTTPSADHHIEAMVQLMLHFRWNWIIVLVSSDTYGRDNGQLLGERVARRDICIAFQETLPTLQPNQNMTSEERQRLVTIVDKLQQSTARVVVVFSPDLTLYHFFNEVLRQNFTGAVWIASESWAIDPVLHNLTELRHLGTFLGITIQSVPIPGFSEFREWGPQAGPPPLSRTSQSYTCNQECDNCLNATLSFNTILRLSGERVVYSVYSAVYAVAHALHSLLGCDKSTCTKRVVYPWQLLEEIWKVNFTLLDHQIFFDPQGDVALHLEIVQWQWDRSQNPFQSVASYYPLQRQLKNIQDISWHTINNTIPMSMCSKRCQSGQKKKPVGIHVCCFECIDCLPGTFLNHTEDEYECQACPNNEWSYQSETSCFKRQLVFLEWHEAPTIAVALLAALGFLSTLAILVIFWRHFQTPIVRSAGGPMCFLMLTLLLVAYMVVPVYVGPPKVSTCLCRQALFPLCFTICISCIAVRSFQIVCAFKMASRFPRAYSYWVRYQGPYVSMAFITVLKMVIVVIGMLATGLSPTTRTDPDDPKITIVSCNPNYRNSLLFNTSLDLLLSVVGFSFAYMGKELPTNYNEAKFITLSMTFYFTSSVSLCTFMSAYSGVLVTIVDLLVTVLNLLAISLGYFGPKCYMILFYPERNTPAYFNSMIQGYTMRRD
T1 sequence (Q7RTX0 21-852 F514L): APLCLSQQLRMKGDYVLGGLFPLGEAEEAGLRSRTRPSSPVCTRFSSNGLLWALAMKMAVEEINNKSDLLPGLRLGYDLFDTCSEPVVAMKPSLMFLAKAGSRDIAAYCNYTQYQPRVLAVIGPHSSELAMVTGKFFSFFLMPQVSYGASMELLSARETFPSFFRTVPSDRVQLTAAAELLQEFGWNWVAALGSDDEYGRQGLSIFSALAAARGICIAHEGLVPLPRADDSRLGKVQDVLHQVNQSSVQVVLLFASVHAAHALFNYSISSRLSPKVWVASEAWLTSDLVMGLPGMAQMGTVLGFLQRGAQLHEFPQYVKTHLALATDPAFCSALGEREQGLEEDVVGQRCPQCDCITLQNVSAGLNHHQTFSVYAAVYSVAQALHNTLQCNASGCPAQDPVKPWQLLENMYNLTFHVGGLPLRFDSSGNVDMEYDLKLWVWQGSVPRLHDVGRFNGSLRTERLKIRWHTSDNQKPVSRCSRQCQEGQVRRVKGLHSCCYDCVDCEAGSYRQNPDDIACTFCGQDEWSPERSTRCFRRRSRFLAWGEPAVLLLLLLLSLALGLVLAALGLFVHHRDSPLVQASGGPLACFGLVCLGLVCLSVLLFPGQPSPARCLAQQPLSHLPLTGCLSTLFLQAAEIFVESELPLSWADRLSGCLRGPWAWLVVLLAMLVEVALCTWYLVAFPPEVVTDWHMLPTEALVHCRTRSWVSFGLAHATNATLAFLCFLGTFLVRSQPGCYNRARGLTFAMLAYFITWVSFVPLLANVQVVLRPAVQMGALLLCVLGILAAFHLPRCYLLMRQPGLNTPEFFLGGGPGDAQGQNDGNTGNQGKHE

B1: thaumatin (protein)
chain: ATFEIVNRCSYTVWAAASKGDAALDAGGRQLNSGESWTINVEPGTKGGKIWARTDCYFDDSGSGICKTGDCGGLLRCKRFGRPPTTLAEFSLNQYGKDYIDISNIKGFNVPMDFSPTTRGCRGVRCAADIVGQCPAKLKAPGGGCNDACTVFQTSEYCCTTGKCGPTEYSRFFKRLCPDAFSYVLDKPTTVTCPGSSNYRVTFCPTA
modifications: Eight disulfides
notes: sweet-tasting plant protein, E957

Molecular target: T1, human TAS1R2-WT/TAS1R3-F514L
Experiment: Calcium mobilisation assay, TAS1R2-WT with TAS1R3 variant F514L
Type: cell-based
Conditions: for Max ΔF/F0: maximal signal amplitude
Text: The coding sequences for TAS1R2 and TAS1R3 were commercially synthesised, and the human codon was optimised for expression in human cells. The coding sequences of human TAS1R2 and TAS1R3 were subcloned and inserted into the mammalian expression vectors pcDNA6/myc-HisA and pcDNA4/myc-HisA (Invitrogen; Thermo Fisher Scientific; Illkirch, France) between the EcoRI and NotI restriction sites, generating the plasmids pcDNA6-TAS1R2 and pcDNA4-TAS1R3, respectively. To increase protein expression in mammalian cells, an upstream start codon was used, which was a sequence called MAX, corresponding to the QBI SP163 element also described in pcDNA4-HisMax (Invitrogen; Thermo Fisher Scientific; Illkirch, France). To measure the expression level of the receptor by immunohistochemistry, we used the FLAG sequence ([…]) in the C-terminal position, which encodes the FLAG tag epitope. SNP variants of TAS1R2 and TAS1R3 were constructed based on […], respectively, using site-directed mutagenesis (Genewiz; Leipzig, Germany).
The HEK293T cells were kindly provided by Jay P. Slack (Givaudan Flavors Corporation; Cincinnati, OH, USA). HEK293T cells stably transfected with Gα16gust44 [43, 67] were seeded in poly-D-lysine-coated clear-bottom black 96-well plates (0.35 × 10^5 cells/well) in high-glucose DMEM supplemented with 2 mM GlutaMAX, 10% dialysed foetal bovine serum with penicillin/streptomycin and G418 (400 μg/mL) at 37 °C and 6.3% CO2 in a humidified atmosphere as previously reported. […] As a negative control, HEK293T cells were mock-transfected with the empty expression vector. After a further 24 h of incubation, the HEK293T cells were washed with C1 buffer (130 mM NaCl, 5 mM KCl, 10 mM HEPES pH 7.4 and 2 mM CaCl2). The 96-well plates containing the cells were then stimulated with sweet-tasting compounds. […] Different concentration ranges were tested depending on the sweet compound injected. The Ca^2+ changes were expressed as fractional changes in fluorescent light intensity: ΔF/F = (F − F0)/F0, where F was the fluorescent light intensity at each point, and F0 was the value of emitted fluorescent light prior to stimulus application. To calculate dose–response relationships, the changes in fluorescence upon stimulus application were averaged, mock-subtracted and baseline-corrected. The dose–response data obtained were adjusted using a 4-parameter logistic equation. The half-maximal effective concentrations (EC50 values) and maximal signal amplitudes were calculated using SigmaPlot software (version 15.0) (Systat Software; San Jose, CA, USA).
For in vitro calcium mobilisation assay performed on hTAS1R2-SNPs, hTAS1R3-SNPs and mTAS1R3-I60T, 6 to 7 concentrations were tested for each sweet compound, plus buffer alone. All concentration–receptor combinations were measured in duplicate, and each experiment was repeated at least 4 times (8 wells/concentration). Results were expressed for each concentration as ΔF/F mean ± SEM and represented as dose–response curves.

| Molecule | R1 = Variant EC50/WT EC50 | Max ΔF/F0 | EC50 (read-out: EC50) | EC50 (brazzein) |
| --- | --- | --- | --- | --- |
| OC[C@H]1O[C@H](O[C@]2(CCl)O[C@H](CCl)[C@@H](O)[C@@H]2O)[C@H](O)[C@@H](O)[C@H]1Cl [Sucralose] | 1.3 | 0.49 ± 0.01 | 141 ± 3 µM |  |
| O=S(=O)(O)NC1CCCCC1 [Cyclamate, cyclamate] |  |  | 1250 ± 30 µM |  |
| C=C(C)[C@@H]1CC=C(/C=N/O)CC1 [Perillartine, perillartine] | 1.0 | 1.40 ± 0.24 | 13.9 ± 7.3 µM |  |
| C=C1C[C@@]23CC[C@H]4[C@@](C)(CCC[C@@]4(C)C(=O)O[C@@H]4O[C@H](CO)[C@@H](O)[C@H](O[C@@H]5O[C@H](CO)[C@@H](O)[C@H](O)[C@H]5O)[C@H]4O[C@@H]4O[C@H](CO)[C@@H](O)[C@H](O)[C@H]4O)[C@@H]2CC[C@]1(O[C@@H]1O[C@H](CO)[C@@H](O)[C@H](O[C@@H]2O[C@H](CO)[C@@H](O)[C@H](O)[C@H]2O)[C@H]1O[C@@H]1O[C@H](CO)[C@@H](O)[C@H](O)[C@H]1O)C3 [Rebaudioside M, rebaudioside M] | 0.8 | 0.64 ± 0.02 | 32.1 ± 2.5 µM |  |
| COc1ccc(CCC(=O)c2c(O)cc(O[C@@H]3O[C@H](CO)[C@@H](O)[C@H](O)[C@H]3O[C@@H]3O[C@@H](C)[C@H](O)[C@@H](O)[C@H]3O)cc2O)cc1O [NHDC, neohesperidin dihydrochalcone] | 0.8 | 1.21 ± 0.08 | 37.9 ± 8.4 µM |  |
| thaumatin | 0.9 | 0.72 ± 0.04 |  |  |
| CC1=CC(=O)NS(=O)(=O)O1 [Acesulfame K, acesulfame K] | 0.7 | 0.14 ± 0.01 | 442 ± 24 µM |  |
| brazzein (QDKCKKVYENYPVSKCQLANQCNYDCKLDKHARSGECFYDEKRNLQCICDYCEY; ends and bridges not checked; cysteine pairing not given here; UniProt P56552 1-54, looked up) [sweet-tasting protein obtained by recombinant production using the yeast Pichia pastoris] | 0.4 | 1.07 ± 0.04 |  | 44.4 ± 6.4 µg/mL |
| C[C@H](CC[C@@H](O[C@@H]1O[C@H](CO[C@@H]2O[C@H](CO)[C@@H](O)[C@H](O)[C@H]2O)[C@@H](O)[C@H](O)[C@H]1O[C@@H]1O[C@H](CO)[C@@H](O)[C@H](O)[C@H]1O)C(C)(C)O)[C@H]1CC[C@@]2(C)[C@@H]3CC=C4[C@@H](CC[C@H](O[C@@H]5O[C@H](CO[C@@H]6O[C@H](CO)[C@@H](O)[C@H](O)[C@H]6O)[C@@H](O)[C@H](O)[C@H]5O)C4(C)C)[C@]3(C)[C@H](O)C[C@]12C [Mogroside V, mogroside V] | 1.4 | 0.79 ± 0.02 | 44.7 ± 2.8 µM |  |
| COC(=O)[C@H](Cc1ccccc1)NC(=O)[C@H](CC(=O)O)NCCC(C)(C)C [Neotame] | 1.0 | 0.45 ± 0.01 | 1.23 ± 0.06 µM |  |
| B1 |  |  | 9.8 ± 1 µM |  |
